Assay results taken from PubChem BioAssay AID1918995 (Molecular Pharmacology Branch, DTP, NCI, 2023).

System: 324938-238-R-J1-PDC complex spheroid growth, % test/control
Assay: Anticancer human tumor 324938-238-R-J1-PDC patient-derived bladder carcinoma cell line growth inhibition [AhR]
Conditions: for IC50: curve of first compound; for viability, T/C: stronger effect = lower value; active means viability on the fitted dose curve at most 10% of control; inactive means the rest
Summary of the method: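 Agents were dosed in half-log steps down from roughly clinical Cmax, or from 10 microM where Cmax was unknown, alone and with AhR antagonists. Read-out: percent test/control growth of tumor spheroids containing HUVEC and MSC stromal cells.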
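Further: spheroids exposed to agents for seven days before viability read.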

O=C(C=Cc1cccc(S(=O)(=O)Nc2ccccc2)c1)NO + CC(CO)NC(=O)c1cc(-c2ccc(Cl)cc2)nn(-c2cnn(C)c2)c1=O
active: viability, T/C (second compound 0.1 µM, first compound 10 µM) 3.34% | viability, T/C (second compound 1 µM, first compound 10 µM) 6.82% | viability, T/C (second compound 3.16 µM, first compound 10 µM) 4.74% | viability, T/C (second compound 10 µM, first compound 10 µM) 2.36%
inactive: viability, T/C (second compound 0.1 µM, first compound 0.0316 µM) 103% | viability, T/C (second compound 0.1 µM, first compound 0.1 µM) 108% | viability, T/C (second compound 0.1 µM, first compound 0.316 µM) 96.1% | viability, T/C (second compound 0.1 µM, first compound 1 µM) 67.4% | viability, T/C (second compound 0.1 µM, first compound 3.16 µM) 56.7% | viability, T/C (second compound 0.316 µM, first compound 0.0316 µM) 94% | viability, T/C (second compound 0.316 µM, first compound 0.1 µM) 92.7% | viability, T/C (second compound 0.316 µM, first compound 0.316 µM) 85.4% | viability, T/C (second compound 0.316 µM, first compound 1 µM) 73.5% | viability, T/C (second compound 0.316 µM, first compound 3.16 µM) 56% | viability, T/C (second compound 0.316 µM, first compound 10 µM) 10.6% | viability, T/C (second compound 1 µM, first compound 0.0316 µM) 93.2% | viability, T/C (second compound 1 µM, first compound 0.1 µM) 93.9% | viability, T/C (second compound 1 µM, first compound 0.316 µM) 89.3% | viability, T/C (second compound 1 µM, first compound 1 µM) 65% | viability, T/C (second compound 1 µM, first compound 3.16 µM) 55.1% | viability, T/C (second compound 3.16 µM, first compound 0.0316 µM) 74.6% | viability, T/C (second compound 3.16 µM, first compound 0.1 µM) 83.9% | viability, T/C (second compound 3.16 µM, first compound 0.316 µM) 77.4% | viability, T/C (second compound 3.16 µM, first compound 1 µM) 67% | viability, T/C (second compound 3.16 µM, first compound 3.16 µM) 54.4% | viability, T/C (second compound 10 µM, first compound 0.0316 µM) 70.6% | viability, T/C (second compound 10 µM, first compound 0.1 µM) 78.8% | viability, T/C (second compound 10 µM, first compound 0.316 µM) 76.9% | viability, T/C (second compound 10 µM, first compound 1 µM) 71.6% | viability, T/C (second compound 10 µM, first compound 3.16 µM) 55.4%
3.55 µM: IC50 (second compound 10 µM)
3.49 µM: IC50 (second compound 0.316 µM)
3.39 µM: IC50 (second compound 3.16 µM)
3.18 µM: IC50 (second compound 0.1 µM) | IC50 (second compound 1 µM)

CCN(c1cc(-c2ccc(CN3CCOCC3)cc2)cc(C(=O)NCc2c(C)cc(C)[nH]c2=O)c1C)C1CCOCC1 + CC(CO)NC(=O)c1cc(-c2ccc(Cl)cc2)nn(-c2cnn(C)c2)c1=O
> 3 µM: IC50 (second compound 0.1 µM) | IC50 (second compound 0.316 µM) | IC50 (second compound 1 µM) | IC50 (second compound 3.16 µM) | IC50 (second compound 10 µM)
inactive: viability, T/C (second compound 0.1 µM, first compound 0.00949 µM) 105% | viability, T/C (second compound 0.1 µM, first compound 0.03 µM) 114% | viability, T/C (second compound 0.1 µM, first compound 0.0949 µM) 107% | viability, T/C (second compound 0.1 µM, first compound 0.3 µM) 101% | viability, T/C (second compound 0.1 µM, first compound 0.949 µM) 95% | viability, T/C (second compound 0.1 µM, first compound 3 µM) 101% | viability, T/C (second compound 0.316 µM, first compound 0.00949 µM) 102% | viability, T/C (second compound 0.316 µM, first compound 0.03 µM) 96.3% | viability, T/C (second compound 0.316 µM, first compound 0.0949 µM) 92.8% | viability, T/C (second compound 0.316 µM, first compound 0.3 µM) 94.8% | viability, T/C (second compound 0.316 µM, first compound 0.949 µM) 96.6% | viability, T/C (second compound 0.316 µM, first compound 3 µM) 93.2% | viability, T/C (second compound 1 µM, first compound 0.00949 µM) 88% | viability, T/C (second compound 1 µM, first compound 0.03 µM) 92.4% | viability, T/C (second compound 1 µM, first compound 0.0949 µM) 89.2% | viability, T/C (second compound 1 µM, first compound 0.3 µM) 98.3% | viability, T/C (second compound 1 µM, first compound 0.949 µM) 90.2% | viability, T/C (second compound 1 µM, first compound 3 µM) 88.9% | viability, T/C (second compound 3.16 µM, first compound 0.00949 µM) 79.3% | viability, T/C (second compound 3.16 µM, first compound 0.03 µM) 80.6% | viability, T/C (second compound 3.16 µM, first compound 0.0949 µM) 76.7% | viability, T/C (second compound 3.16 µM, first compound 0.3 µM) 72.5% | viability, T/C (second compound 3.16 µM, first compound 0.949 µM) 77.3% | viability, T/C (second compound 3.16 µM, first compound 3 µM) 77.6% | viability, T/C (second compound 10 µM, first compound 0.00949 µM) 70.4% | viability, T/C (second compound 10 µM, first compound 0.03 µM) 69% | viability, T/C (second compound 10 µM, first compound 0.0949 µM) 67.5% | viability, T/C (second compound 10 µM, first compound 0.3 µM) 77.3% | viability, T/C (second compound 10 µM, first compound 0.949 µM) 66.3% | viability, T/C (second compound 10 µM, first compound 3 µM) 74.1%
